Source: patent US6972291B2, “Method for reducing food intake” (priority 2002, dated 2005)
Counter-ions that a name gives are not always drawn. Like-named read-outs stand apart in the source and are kept apart here.

What was measured:
[1] = test system: food or carbohydrate craving in patients; assay: Low-dose naltrexone patient study: subjective naltrexone efficacy rating (zero to ten) on food or carbohydrate craving; format: in vivo, human; design: key to naltrexone efficacy rating: 0 = no benefit on craving, 10 = no food/carbohydrate craving; conditions: scale zero to ten
From the text: Fifty mg naltrexone tablets (REVIA) were ground, mixed with lactose and dispensed at lower doses into capsules by a compounding chemist according to standard methods in doses indicated in the following examples.
(§1) For each patient described below, the patient was given an initial dose and the dose was then tailored to the patient. The dose of naltrexone was lowered when the patient experienced side effects, including headaches, nausea and/or difficulty concentrating on complex tasks, or if naltrexone is inadequately effective at a higher dose. […] Although “final” values are provided, the study continues unless termination is indicated. The following patients, as well as additional patients are currently being studied. All patients were treated for at least two months, unless released from the study due to adverse effects that were not relieved by reducing the dosage of naltrexone.
The “rating” of naltrexone efficacy is a subjective scale of zero to ten. A value of zero means that the patient experiences no beneficial effects upon food or carbohydrate craving when taking naltrexone. A value of ten means that the patient experiences no food or carbohydrate craving after taking naltrexone, and can maintain control even when a tantalizing carbohydrate-laden treat, such as a hot buttered roll, a cookie or ice cream, is placed in front of the patient, even when the patient is hungry. For diabetics, a value of eight or greater is considered a success. In contrast, for obese, non-diabetics, a value of six or greater is considered a success because carbohydrates need to be controlled, but not as diligently controlled as with diabetics.
Of note, one patient who snacked between dinner and bedtime also had insomnia. […] Unless otherwise noted, all patients are diabetics. Patients who experienced a naltrexone efficacy rating of greater than or equal to 8 also experienced a suppression of both carbohydrate craving and any tendency to overeat, in general.

[2] = test system: patients; assay: Side effects of low-dose naltrexone therapy in patients; format: in vivo, human
From the text: These effects included tiredness, headache, nausea, impaired libido, diminished pleasure in daily activities and difficulty concentrating on complex tasks. Such problems nearly always occur after the first dose or a dosage increase. When they occur, the dose of naltrexone must either be lowered or naltrexone therapy must be discontinued if lower doses are ineffective.
Another side effect that some patients relate is a feeling of mental confusion that impairs concentration upon difficult tasks. Like a headache, this effect is unacceptable. For this reason, a patient typically is started on a very low dose—for example, and without limitation, 1 mg capsules—and the amount of each dose is then increased or decreased until an effective level is reached at which the patient experiences no side effects.
as §1

[3] = test system: carbohydrate craving in patients; assay: Timing of naltrexone action on carbohydrate craving in patients (onset, duration); format: in vivo, human
Protocol: Naltrexone is preferably administered to act at the time(s) of day when overeating or carbohydrate craving occurs. Naltrexone usually starts working about 3–4 hours after it is taken and continues to work for about six hours, but this timing varies from person to person. If a patient overeats only at supper, they might take a dose about 3–4 hours prior to that meal. If their problem is from after lunch until bedtime, they might take a dose after breakfast, after lunch, and before or after supper, all by trial and error, to find the optimal timing. Different amounts of naltrexone also may be administered at different times, depending on a patient's response to each dosage at each time. If the patient experiences carbohydrate cravings at all waking hours, the patient might take a slow-release (extended-release) or timed-release dose at bedtime that would ideally cover the next morning, or take a dose in the middle of the night if the patient awakens to urinate, as many do. The patient then might take additional doses upon arising, before lunch, mid-afternoon, and after supper or a slow-release dose upon arising. […] Finding what works for any given patient's particular pattern of overeating or carbohydrate craving is trial and error. If a patient's problem is only at dinner when they eat out, then they might take the naltrexone about 3–4 hours before the planned dinnertime only on such days.

[4] = test system: food or carbohydrate craving in patients; assay: Low-dose naltrexone patient study: subjective naltrexone efficacy rating (zero to ten) on food or carbohydrate craving; format: in vivo, human; conditions: obese person
[5] = test system: squirrel monkeys; conditions: cited from earlier work
[6] = test system: animals; conditions: cited from earlier work
[7] = test system: eating behavior in humans; conditions: cited from earlier work
[8] = patients, varies from person to person

Q: With `O=C1CC[C@@]2(O)[C@H]3Cc4ccc(O)c5c4[C@@]2(CCN3CC2CC2)[C@H]1O5` [naltrexone HCl, naltrexone hydrochloride] as the molecule, how does the naltrexone efficacy rating ([1]; Patient 1, diabetic, 207.5 lbs, 12.5 mg twice daily tailored to 1 mg three times daily) read?
A: The naltrexone efficacy rating was no less than 8.

Q: What about the naltrexone efficacy rating ([1]; Patient 2, diabetic, 256 lbs, 12.5 mg/d tailored to 12.5 mg four times per day) of the same molecule?
A: Its naltrexone efficacy rating is 7 to 8.

Q: What about the naltrexone efficacy rating ([1]; Patient 3, diabetic, 252 lbs, 12.5 mg when eating out tailored to 2 mg twice daily) of the same molecule?
A: The naltrexone efficacy rating was no less than 8.

Q: What about the naltrexone efficacy rating ([1]; Patient 4, non-diabetic patient, 183 lbs, 8 mg twice daily adjusted to 25 mg three times daily) of the same molecule?
A: The naltrexone efficacy rating was 4.

Q: What about the naltrexone efficacy rating ([1]; Patient 5, diabetic, 162 lbs, 8 mg after lunch, unchanged) of the same molecule?
A: Its naltrexone efficacy rating is 10.

Q: What about the naltrexone efficacy rating ([1]; Patient 6, diabetic, 204 lbs, 6 mg twice daily tailored to 1 mg twice a day) of the same molecule?
A: Its naltrexone efficacy rating is 10.

Q: And the naltrexone efficacy rating ([1]; Patient 7, polycystic ovarian syndrome, 170 lbs, 6 mg three times daily tailored to 36 mg/d)?
A: The naltrexone efficacy rating was 8 to 9.

Q: And the naltrexone efficacy rating ([1]; Patient 8, diabetic, 182 lbs, 8 mg after lunch tailored to 8 mg four times daily)?
A: The naltrexone efficacy rating was 9.5.

Q: What about the naltrexone efficacy rating ([1]; Patient 9, diabetic, 106 lbs, 25 mg/d tailored to 50 mg/d, low doses not tried) of the same molecule?
A: Its naltrexone efficacy rating is less than 8.

Q: And the naltrexone efficacy rating ([1]; Patient 10, diabetic, 161 lbs, 12.5 mg three times daily adjusted to 50 mg three times daily, doses less than 12.5 mg not tried)?
A: Its naltrexone efficacy rating is “zero”.

Q: And the naltrexone efficacy rating ([1]; Patient 11, diabetic, 183 lbs, 8 mg/d tailored to 32 mg/d)?
A: Its naltrexone efficacy rating is no less than 8.

Q: And the naltrexone efficacy rating ([1]; Patient 12, diabetic, 114 lbs, 4 mg after lunch tailored to 4.5 mg)?
A: The naltrexone efficacy rating was “zero”.

Q: What about the naltrexone efficacy rating ([1]; Patient 13, diabetic, 208 lbs, 5 mg three times per day tailored to 8 mg twice per day) of the same molecule?
A: The naltrexone efficacy rating was 8.5.

Q: And the carbohydrate craving rating ([1]; Patient 14, diabetic, 226.5 lbs, 0.1 mg nine times per day adjusted to 50 mg three times daily)?
A: The carbohydrate craving rating was “zero”.

Q: And the naltrexone efficacy rating ([1]; Patient 15, diabetic, 184.25 lbs, 0.75 mg twice daily tailored to 0.25 mg twice daily)?
A: Its naltrexone efficacy rating is 10.

Q: And the side effects ([2]; Patient 1, even at the final dosage (1 mg three times daily), discontinued treatment)?
A: Its side effects is “headaches”.

Q: And the side effects ([2]; Patient 4, 8 mg twice daily adjusted to 25 mg three times daily, discontinued treatment)?
A: The side effects was “headaches”.

Q: What about the side effects ([2]; Patient 12, even at the final dosage (4.5 mg), discontinued treatment) of the same molecule?
A: Its side effects is “headaches”.

Q: And the side effects ([2]; Patient 15, final dose 0.25 mg twice daily)?
A: The side effects was “not at the final dose”.

Q: What about the side effects ([2]; Patient 15, initial dose 0.75 mg twice daily) of the same molecule?
A: The side effects was “decreased libido, confusion, diminished animation and excessive loss of appetite”.

Q: What about the side effects ([2]; obese person, 3 mg dose) of the same molecule?
A: The side effects was “no headache”.

Q: What about the side effects ([2]; obese person, dose of 2 mg) of the same molecule?
A: Its side effects is “no headache”.

Q: And the side effects ([2]; obese person, one 4 mg capsule)?
A: The side effects was “headache”.

Q: And the side effects ([2]; one patient who snacked between dinner and bedtime and had insomnia)?
A: The side effects was “made them tired”.

Q: What about the “time covered by one small dose” value ([3]; certain patients) of the same molecule?
A: Its value is “more than 24 hours”.

Q: And the “time at which efficacy is apparent” value ([3]; patients, low dose of naltrexone)?
A: Its value is “apparent by the second day of treatment”.

Q: What about the “time naltrexone continues to work” value [3, 8] of the same molecule?
A: Its value is “about six”.

Q: And the “time until naltrexone starts working after it is taken” value [3, 8]?
A: Its value is 3 to 4 h.

Q: And the effect on cravings ([4]; 3 mg dose)?
A: The effect on cravings was “cravings were curbed”.

Q: What about the effect on appetite ([4]; dose of 2 mg) of the same molecule?
A: The effect on appetite was “appetite was unaffected”.

Q: What about the anorexic effect ([5]; doses of 0.22 mg/kg) of the same molecule?
A: Its anorexic effect is “slight anorexic effect”.

Q: And the anorexic effect ([5]; higher doses than 0.22 mg/kg)?
A: The anorexic effect was “the anorexic effect was greater”.

Q: And the “effect on body weight” value [6]?
A: The value was “reduces body weight in animals without evidence of drug tolerance”.

Q: And the risk ([7]; DeZwaan et al. review)?
A: The risk was “potential for liver damage”.

Q: What about the “effect on sweet cravings” value ([7]; humans, Yeomans II, 50 mg, compared to other food categories) of the same molecule?
A: The value was “sweet cravings were not reduced”.

Q: And the “effect on binge eating” value ([7]; humans, one long-term study, 100 mg doses)?
A: The value was “binge eating was affected long-term”.

Q: And the “effect on food intake” value ([7]; humans, single-dose studies, short-term doses of 50 mg or greater)?
A: Its value is “affect food intake”.
